Like-named read-outs stand apart in the source and are kept apart here.
What was measured:
Abeta 40 = experiment: In vivo inhibition of beta-secretase: Abeta 40 reduction in CSF and brain of the rat; details: 10 mpk (unless otherwise noted), after 4 hrs
Excerpt: In Vivo Inhibition of Beta-Secretase
Several animal models, including mouse, rat, dog, and monkey, may be used to screen for inhibition of beta-secretase activity in vivo following administration of a test compound sample. Animals used in this invention can be wild type, transgenic, or gene knockout animals. For example, the Tg2576 mouse model, prepared and conducted as described in Hsiao et al., 1996, Science 274, 99-102, and other non-transgenic or gene knockout animals are useful to analyze in vivo inhibition of Amyloid beta peptide (Abeta) production in the presence of inhibitory test compounds. Generally, 2 to 18 month old Tg2576 mice, gene knockout mice or non-transgenic animals are administered test compounds formulated in vehicles, such as cyclodextran, phosphate buffers, hydroxypropyl methylcellulose or other suitable vehicles. One to twenty-four hours following the administration of compound, animals are sacrificed, and brains as well as cerebrospinal fluid (CSF) and plasma are removed for analysis of A-beta levels and drug or test compound concentrations (Dovey et al., 2001, Journal of Neurochemistry, 76, 173-181) Beginning at time 0, animals are administered by oral gavage, or other means of delivery such as intravenous injection, an inhibitory test compound of up to 100 mg/kg in a standard, conventional formulation, such as 2% hydroxypropyl methylcellulose, 1% Tween80. A separate group of animals receive 2% hydroxypropyl methylcellulose, 1% Tween80 alone, containing no test compound, and serve as a vehicle-control group. At the end of the test period, animals are sacrificed and brain tissues, plasma or cerebrospinal fluid are collected. Brains are either homogenized in 10 volumes (w/v) of 0.2% diethylamine (DEA) in 50 mM NaCl (Best et al., 2005, Journal of Pharmacology and Experimental Therapeutics, 313, 902-908), or in 10 volumes of 0.5% TritonX-100 in Tris-buffered saline (pH at about 7.6). Homogenates are centrifuged at 355,000 g, 4° C. for 30 minutes. CSF or brain supernatants are then analyzed for the presence of A-beta peptide by specific sandwich ELISA assays based on ECL (Electrochemiluminescence) technology. For example, rat Abeta40 is measured using biotinylated-4G8 (Signet) as a capture antibody and Fab40 (an in-house antibody specific to the C-terminal of Abeta40) as a detection antibody. For example, 4 hours after administration of 30 mg/kg oral dose of the test compound in 2% hydroxypropyl methylcellulose, 1% Tween80 (pH2.2) to 200 g male Sprague Dawley rats, amyloid beta peptide levels are measured for reduction by X % and Y % in cerebrospinal fluid and brain, respectively, when compared to the levels measured in the vehicle-treated or control […].
Actual vehicles used: Oral: 2% HPMC, 1% Tween80, pH 2.2
• IV: 5% EtOH, 45% Propylene Glycol in 5% Dextrose
The compounds of the invention may be shown to reduce the formation and/or deposition of amyloid beta peptide in the cerebrospinal fluid (CSF) as well as in the brain of a mouse or rat at either 3 mpk, 10 mpk or 30 mpk (mpk=mg compound per kg weight of the animal) dosing concentrations after 4 hrs.

[1] = tested on: Aβ 40 in conditioned medium of cells stably expressing Amyloid Precursor Protein (APP); experiment: In vitro BACE cell-based assay (Aβ 40 sandwich ELISA)
In short: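 APP-expressing cells, 24 h pre-culture in DMEM/10% FBS, treated 24 h with 10-point compound dilutions from 100 or 10 μM top, 0.1% DMSO final. Secreted Aβ40 quantified by sandwich ELISA (pAb40 capture, biotinylated 6E10 detection, europium TRF); IC50 from percent inhibition versus concentration.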

Cathepsin D (Cat D) = Cathepsin D (Cat D) (Homo sapiens, UniProt P07339); experiment: In vitro enzymatic Cathepsin D (Cat D) FRET assay; assay type: biochemical
In short: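 Recombinant CHO-expressed enzyme (9 nM) pre-incubated 1 h with serially diluted inhibitor in 0.05 M citrate pH 3.5, 10% DMSO final, 5 mM CHAPS. Reaction started with 20 nM FRET peptide substrate, run 1 h, stopped with Tris to neutral pH; fluorescence read at ex 500/em 580 nm.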

[2] = biological target: Beta Secretase enzyme (BACE) (Homo sapiens, UniProt P56817); experiment: In vitro enzymatic BACE FRET assay; assay type: biochemical; details: read-out: BACE1 FRET assay IC50
In short: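 Enzyme (0.2 nM) pre-incubated 1 h with serially diluted inhibitors in 0.05 M acetate pH 4.2, 10% DMSO, 100 uM genapol. Reaction started with 50 nM fluorophore/quencher peptide FRET substrate, run 1 h, stopped with Tris to neutral pH. Fluorescence read at excitation 488 nm, […].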

[3] = Abeta 40 in CSF of the rat, read-out: % reduction of rat CSF levels at 10 pmk
[4] = Abeta 40 in brain of the rat, read-out: % reduction of rat brain levels at 10 mpk
[5] = Homo sapiens, HEK293, HEK cell, average IC50
[6] = text summary referring to data in Table 2
[7] = Homo sapiens, HEK293, average IC50, HEK cell assay, Aβ 40 readout
[8] = Cathepsin D FRET assay, read-out: CatD IC50
[9] = average IC50, in vitro enzymatic BACE FRET assay
[10] = Homo sapiens, HEK293, HEK cells, average IC50

Sequence of Beta Secretase enzyme (BACE) (P56817 46-501): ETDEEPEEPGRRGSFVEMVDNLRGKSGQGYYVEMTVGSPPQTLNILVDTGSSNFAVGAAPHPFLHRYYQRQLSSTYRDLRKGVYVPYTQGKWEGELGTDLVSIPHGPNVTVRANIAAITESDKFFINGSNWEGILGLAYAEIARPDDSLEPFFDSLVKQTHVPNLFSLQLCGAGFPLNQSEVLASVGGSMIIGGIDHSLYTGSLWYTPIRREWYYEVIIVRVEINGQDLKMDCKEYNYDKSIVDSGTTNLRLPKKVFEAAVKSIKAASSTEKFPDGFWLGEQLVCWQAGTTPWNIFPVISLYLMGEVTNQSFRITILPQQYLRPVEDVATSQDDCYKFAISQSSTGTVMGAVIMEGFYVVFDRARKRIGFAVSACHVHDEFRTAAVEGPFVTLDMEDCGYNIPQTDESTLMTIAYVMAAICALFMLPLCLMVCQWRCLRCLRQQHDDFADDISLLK
Sequence of Cathepsin D (Cat D) (P07339 65-412, species assumed): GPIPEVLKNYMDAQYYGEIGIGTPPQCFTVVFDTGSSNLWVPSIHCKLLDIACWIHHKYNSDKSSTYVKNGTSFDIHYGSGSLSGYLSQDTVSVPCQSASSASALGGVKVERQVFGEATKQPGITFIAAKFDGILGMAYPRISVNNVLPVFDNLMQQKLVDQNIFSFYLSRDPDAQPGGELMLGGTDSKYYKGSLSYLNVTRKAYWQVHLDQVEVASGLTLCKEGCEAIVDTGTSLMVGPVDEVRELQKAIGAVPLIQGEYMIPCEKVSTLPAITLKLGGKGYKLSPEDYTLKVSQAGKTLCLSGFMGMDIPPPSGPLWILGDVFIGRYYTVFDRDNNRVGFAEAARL

SMILES: COc1cnc(C(=O)Nc2ccc3c(c2)[C@@]2(C)N=C(N)C(C)(C)S(=O)(=O)[C@@H]2C[C@H](C)O3)cn1 [Example 55, N-((4aR,6S,11bR)-2-amino-3,3,6,11b-tetramethyl-4,4-dioxido-4a,5,6,11b-tetrahydro-3H-[1]benzoxepino[4,5-b][1,4]thiazin-10-yl)-5-methoxy-2-pyrazinecarboxamide]
- inhibition in vivo at 10 mg/kg (Abeta 40; [3]): 74%
- inhibition in vivo at 10 mg/kg (Abeta 40; [4]): 70%
- IC50 [1, 5]: 0.004 µM
- IC50 (Cathepsin D (Cat D); read-out: CatD IC50): 650 µM
- IC50 ([2]; average IC50): 0.009 µM

SMILES: Cc1cc(C(F)(F)F)cnc1C(=O)Nc1ccc2c(c1)[C@@]1(C)N=C(N)C(C)(C)S(=O)(=O)[C@@H]1C[C@H](C)O2 [Example 54, N-((4aR,6S,11bR)-2-amino-3,3,6,11b-tetramethyl-4,4-dioxido-4a,5,6,11b-tetrahydro-3H-[1]benzoxepino[4,5-b][1,4]thiazin-10-yl)-3-methyl-5-(trifluoromethyl)-2-pyridinecarboxamide]
- inhibition in vivo at 10 mg/kg (Abeta 40; [3]): 76%
- inhibition in vivo at 10 mg/kg (Abeta 40; [4]): 63%
- IC50 [1, 5]: 0.001 µM
- IC50 (Cathepsin D (Cat D); read-out: CatD IC50): 1620 µM
- IC50 (Cathepsin D (Cat D); [6]): > 1200 µM
- IC50 ([2]; average IC50): 0.006 µM

SMILES: C[C@H]1C[C@@H]2[C@](C)(N=C(N)C(C)(C)S2(=O)=O)c2cc(NC(=O)c3ccc(C(F)(F)F)cn3)ccc2O1 [Example 84, N-((4aR,6S,11bR)-2-amino-3,3,6,11b-tetramethyl-4,4-dioxido-4a,5,6,11b-tetrahydro-3H-[1]benzoxepino[4,5-b][1,4]thiazin-10-yl)-5-(trifluoromethyl)-2-pyridinecarboxamide]
- inhibition in vivo at 10 mg/kg (Abeta 40; [3]): 70%
- inhibition in vivo at 10 mg/kg (Abeta 40; [4]): 68%
- IC50 [1, 7]: 0.004 µM
- IC50 (Cathepsin D (Cat D); [8]): 2760 µM
- IC50 (Cathepsin D (Cat D); [6]): > 1200 µM
- IC50 [2, 9]: 0.012 µM

SMILES: C[C@H]1C[C@@H]2[C@](C)(N=C(N)C(C)(C)S2(=O)=O)c2cc(Nc3ncnc4cc(C(F)(F)F)cnc34)ccc2O1 [Example 133, (4aR,6S,11bR)-3,3,6,11b-tetramethyl-N^~10^~-(7-(trifluoromethyl)pyrido[3,2-d]pyrimidin-4-yl)-4a,5,6,11b-tetrahydro-3H-[1]benzoxepino[4,5-b][1,4]thiazine-2,10-diamine 4,4-dioxide]
- inhibition in vivo at 10 mg/kg (Abeta 40; [3]): 63%
- inhibition in vivo at 10 mg/kg (Abeta 40; [4]): 51%
- IC50 [1, 7]: 0.005 µM
- IC50 (Cathepsin D (Cat D); [8]): 427 µM
- IC50 [2, 9]: 0.01 µM

SMILES: CC#CCOc1cnc(C(=O)Nc2ccc3c(c2)[C@@]2(C)N=C(N)C(C)(C)S(=O)(=O)[C@@H]2CCO3)cn1 [Example 191, N-((4aR,11bR)-2-amino-3,3,11b-trimethyl-4,4-dioxido-4a,5,6,11b-tetrahydro-3H-[1]benzoxepino[4,5-b][1,4]thiazin-10-yl)-5-(2-butyn-1-yloxy)-2-pyrazinecarboxamide]
- IC50 [1, 10]: 0.0003 µM
- IC50 (Cathepsin D (Cat D); read-out: CatD IC50): 624 µM
- IC50 ([2]; average IC50): 0.0007 µM

SMILES: CC1(C)C(N)=N[C@]2(C)c3cc(NC(=O)c4ccc(OCC(F)(F)F)cn4)ccc3OCC[C@H]2S1(=O)=O [Example 97, N-((4aR,11bR)-2-amino-3,3,11b-trimethyl-4,4-dioxido-4a,5,6,11b-tetrahydro-3H-[1]benzoxepino[4,5-b][1,4]thiazin-10-yl)-5-(2,2,2-trifluoroethoxy)-2-pyridinecarboxamide]
- IC50 [1, 7]: 0.069 µM
- IC50 (Cathepsin D (Cat D); [8]): 974 µM
- IC50 [2, 9]: 0.022 µM

SMILES: COc1cnc(C(=O)Nc2ccc3c(c2)[C@@]2(C)N=C(N)C(C)(C)S(=O)(=O)[C@@H]2CCO3)c(Cl)c1 [Example 173, N-((4aR,11bR)-2-amino-3,3,11b-trimethyl-4,4-dioxido-4a,5,6,11b-tetrahydro-3H-[1]benzoxepino[4,5-b][1,4]thiazin-10-yl)-3-chloro-5-methoxy-2-pyridinecarboxamide]
- IC50 [1, 10]: 0.007 µM
- IC50 (Cathepsin D (Cat D); read-out: CatD IC50): > 400 µM
- IC50 ([2]; average IC50): 0.005 µM

SMILES: Cc1cc(Cl)cnc1C(=O)Nc1ccc2c(c1)[C@@]1(C)N=C(N)C(C)(C)S(=O)(=O)[C@H]1CCS2 [Example 115, N-((4aS,11bR)-2-amino-3,3,11b-trimethyl-4,4-dioxido-4a,5,6,11b-tetrahydro-3H-[1]benzothiepino[4,5-b][1,4]thiazin-10-yl)-5-chloro-3-methyl-2-pyridinecarboxamide]
- IC50 [1, 7]: 0.012 µM
- IC50 (Cathepsin D (Cat D); [8]): 276 µM
- IC50 [2, 9]: 0.006 µM

SMILES: COc1cnc(C(=O)Nc2ccc3c(c2)[C@@]2(C)N=C(N)C(C)(C)S(=O)(=O)[C@@H]2CCO3)c(C)c1 [Example 158, N-((4aR,11bR)-2-amino-3,3,11b-trimethyl-4,4-dioxido-4a,5,6,11b-tetrahydro-3H-[1]benzoxepino[4,5-b][1,4]thiazin-10-yl)-5-methoxy-3-methyl-2-pyridinecarboxamide]
- IC50 [1, 7]: 0.007 µM
- IC50 (Cathepsin D (Cat D); [8]): > 400 µM
- IC50 [2, 9]: 0.021 µM

SMILES: CC1(C)C(N)=N[C@]2(C)c3cc(NC(=O)c4ccc(Cl)cn4)ccc3CCC[C@@H]2S1(=O)=O [Example 38, N-((4aS,11bR)-2-amino-3,3,11b-trimethyl-4,4-dioxido-3,4a,5,6,7,11b-hexahydrobenzo[3,4]cyclohepta[1,2-b][1,4]thiazin-10-yl)-5-chloro-2-pyridinecarboxamide]
- IC50 [1, 5]: 0.15 µM
- IC50 (Cathepsin D (Cat D); read-out: CatD IC50): > 400 µM
- IC50 ([2]; average IC50): 0.099 µM

SMILES: COc1cnc(C(=O)Nc2ccc3c(c2)[C@@]2(C)N=C(N)C(C)(C)S(=O)(=O)[C@@]2(F)CCO3)cn1 [Example 89, N-((4aS,11bR)-2-amino-4a-fluoro-3,3,11b-trimethyl-4,4-dioxido-4a,5,6,11b-tetrahydro-3H-[1]benzoxepino[4,5-b][1,4]thiazin-10-yl)-5-methoxy-2-pyrazinecarboxamide]
- IC50 [1, 7]: 0.05 µM
- IC50 (Cathepsin D (Cat D); [8]): 400 µM
- IC50 [2, 9]: 0.028 µM

SMILES: Cc1cc(C#N)cnc1C(=O)Nc1ccc2c(c1)[C@@]1(C)N=C(N)C(C)(C)S(=O)(=O)[C@@H]1C[C@H](C)O2 [Example 57, N-((4aR,6S,11bR)-2-amino-3,3,6,11b-tetramethyl-4,4-dioxido-4a,5,6,11b-tetrahydro-3H-[1]benzoxepino[4,5-b][1,4]thiazin-10-yl)-5-cyano-3-methyl-2-pyridinecarboxamide]
- IC50 [1, 5]: 0.0007 µM
- IC50 (Cathepsin D (Cat D); read-out: CatD IC50): 1460 µM
- IC50 (Cathepsin D (Cat D); [6]): > 1200 µM
- IC50 ([2]; average IC50): 0.002 µM

SMILES: COc1cnc(C(=O)Nc2ccc3c(c2)[C@@]2(CF)N=C(N)C(C)(C)S(=O)(=O)[C@@H]2CCO3)c(C)c1 [Example 152, N-((4aR,11bS)-2-amino-11b-(fluoromethyl)-3,3-dimethyl-4,4-dioxido-4a,5,6,11b-tetrahydro-3H-[1]benzoxepino[4,5-b][1,4]thiazin-10-yl)-5-methoxy-3-methyl-2-pyridinecarboxamide]
- IC50 [1, 7]: 0.075 µM
- IC50 (Cathepsin D (Cat D); [8]): > 400 µM
- IC50 [2, 9]: 0.031 µM

SMILES: CC1(C)C(N)=N[C@]2(CF)c3cc(Nc4nccc5cc(Cl)cnc45)ccc3OCC[C@@H]2S1(=O)=O [Example 154, (4aS,11bS)-N1^~10^~-(3-chloro-1,7-naphthyridin-8-yl)-11b-(fluoromethyl)-3,3-dimethyl-4a,5,6,11b-tetrahydro-3H-[1]benzoxepino[4,5-b][1,4]thiazine-2,10-diamine 4,4-dioxide]
- IC50 ([1]; average IC50, HEK cell assay, Aβ 40 readout): 0.032 µM
- IC50 (Cathepsin D (Cat D); [8]): 462 µM
- IC50 [2, 9]: 0.003 µM
